The test system of data set [1] is Liver microsome. The data set is described as follows: Prodrug conversion in rat liver microsomes assessed as 2-MPPA formation at 10 uM by LC/MS/MS analysis. In kind it is ADME. The note with it: TDE = time-dependent effect. (Liver microsomes are a subcellular fraction often used to study metabolism.)
The test system of data set [2] is Liver microsome. Nature of the data set: Prodrug conversion in rat liver microsomes at 10 uM after 1.5 hrs by LC/MS/MS analysis. It counts as ADME.
The nature of data set [3]: Prodrug conversion in simulated gastric fluid at pH 1.2 after 48 hrs by HPLC analysis. In kind it is ADME. Conditions: simulated gi fluid, pH 1.2, 48 h.
Data set [4] has as its target Glutamate carboxypeptidase 2 (Homo sapiens, UniProt Q04609). Nature of the data set: Inhibition of human recombinant GCP2 using N-acetyl-L-aspartyl[3H]-L-glutamate as substrate.
In data set [5] the test system is Plasma. The data set is described as follows: Prodrug conversion in rat plasma assessed as 2-MPPA formation at 10 mg/kg, po after 0.25 to 3 hrs. Further details: dose 10 mg/kg, route oral. In kind it is ADME, organism-based. Conditions: in vivo.
For data set [6], the system named is Rattus norvegicus. Nature of the data set: Antinociceptive effect in rat chronic constriction injury model of neuropathic pain assessed as reduction of CCI-induced thermal hyperalgesia at 10 mg/kg/day, po after 11 to 18 days relative to vehicle-treated control. In kind it is functional, organism-based.

Structures are written as SMILES. Activity calls are given as the source filed them. The rule behind the calls is not given here.

Sequence of Glutamate carboxypeptidase 2 (Q04609 whole entry): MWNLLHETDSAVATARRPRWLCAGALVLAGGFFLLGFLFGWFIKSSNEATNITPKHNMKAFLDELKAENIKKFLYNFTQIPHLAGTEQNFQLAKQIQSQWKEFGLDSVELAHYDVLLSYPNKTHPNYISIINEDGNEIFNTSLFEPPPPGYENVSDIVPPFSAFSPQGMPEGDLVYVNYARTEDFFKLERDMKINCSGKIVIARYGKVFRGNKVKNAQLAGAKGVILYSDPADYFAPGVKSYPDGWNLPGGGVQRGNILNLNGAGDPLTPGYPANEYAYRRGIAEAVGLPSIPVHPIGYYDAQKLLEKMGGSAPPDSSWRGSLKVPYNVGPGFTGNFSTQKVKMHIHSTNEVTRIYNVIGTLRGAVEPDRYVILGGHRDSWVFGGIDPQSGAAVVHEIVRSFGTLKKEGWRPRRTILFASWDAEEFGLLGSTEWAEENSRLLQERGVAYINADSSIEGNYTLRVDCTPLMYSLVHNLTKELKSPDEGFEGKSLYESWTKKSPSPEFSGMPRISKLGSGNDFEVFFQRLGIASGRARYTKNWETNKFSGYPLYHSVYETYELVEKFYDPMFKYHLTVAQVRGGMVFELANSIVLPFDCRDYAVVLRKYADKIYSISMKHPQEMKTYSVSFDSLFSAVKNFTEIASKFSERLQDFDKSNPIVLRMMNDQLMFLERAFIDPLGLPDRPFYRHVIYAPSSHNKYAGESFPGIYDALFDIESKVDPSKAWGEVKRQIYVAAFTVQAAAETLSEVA

For the compound `O=C(O)CCC(CCCS)C(=O)O` (stereo not drawn), the Activity result in data set [1] is listed as “tde”.
Consider `O=C(O)c1cccc(-c2cccc3c2C(=O)SCC3)c1`, for which the Stability entry in data set [2] and in data set [3] was “Stable” in each case. In addition, the IC50 in data set [4] is 20 µM.
With `O=C(O)CCC1CCCSC1=O` (racemic), the Stability result in data set [3] is on record as “Stable”. Further, the IC50 in data set [4] came out at 2 µM. Moreover, in data set [5], the Drug metabolism result is “Active”. The result in data set [6] was Active.

The term IC50 denotes the midpoint of a concentration-inhibition curve.

These data come from ChEMBL document CHEMBL3112468, “δ-Thiolactones as prodrugs of thiol-based glutamate carboxypeptidase II (GCPII) inhibitors” (J Med Chem, 2014).
